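Test compounds were applied to cells in 96-well plates for 48 hours at 5 doses. GI50 marks 50% less growth.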 Active and inactive are the calls of the source. Rule as the data show it: active = GI50 up to about 1.1 µM and inactive = higher. Where only a bound is given, the exact number is not on record here.

Common to all, as to test: NCI anticancer screen, dose series, 48 h
Assay [1] relates to EKVX.
Assay [2] has as its system SF-539.
For assay [3], the system named is SF-268.
For assay [4], the system named is SK-MEL-2.
The subject of assay [5] is 786-0.
Assay [6] concerns CAKI-1.
Assay [7] has as its system RPMI-8226.
Assay [8] relates to HCC 2998.
In assay [9] the test system is RXF 393.
In assay [10] the test system is CCRF-CEM.
Assay [11] relates to SK-MEL-28.
In assay [12] the test system is HOP-92.
Assay [13] relates to UACC-62.
Assay [14] has as its system NCI-H460.
For assay [15], the system named is HL-60.
In assay [16] the test system is OVCAR-5.
In assay [17] the test system is LOX IMVI.

Turning to `CC1=Nc2c(ccc3c2C(=O)c2ccccc2C3=O)NC(c2ccncc2)C1` (stereo not given), the GI50 in assay [1] is > 10 µM (inactive); in [2], > 10 µM (inactive); in assay [3], > 10 µM (inactive); in [4], > 10 µM (inactive); in assay [5], > 10 µM (inactive); in [6] it was 7.98 µM (inactive). The GI50 in [7] was 4.84 µM (inactive); in [8], > 10 µM (inactive); in assay [9] it was > 10 µM (inactive); in [10], 0.515 µM (active); in assay [11], > 10 µM (inactive); in assay [12], > 10 µM (inactive). Further, the GI50 in [13] is 62.4 µM (inactive); in assay [14], > 10 µM (inactive); in assay [15] it was 0.798 µM (active); in [16] it was 95.1 µM (inactive); in [17], 34.8 µM (inactive).

Take `C=CCC1(CN(C)C)CC/C(=C\c2ccc3c(c2)OCO3)C1=O` (stereo not given): the GI50 in assay [1] is 18.1 µM (inactive); in assay [2] it was 88.9 µM (inactive); in [3], 91 µM (inactive); in assay [4], > 100 µM (inactive); in [5], 44.8 µM (inactive); in assay [6], 68.5 µM (inactive). In addition, the GI50 in [7] was 24.3 µM (inactive); in assay [8], 37.3 µM (inactive); in [9] it was 59.8 µM (inactive); in [10], 29.2 µM (inactive); in [11], > 100 µM (inactive); in [12], 89.9 µM (inactive). The GI50 is 68.4 µM (inactive) in assay [13]; 50.4 µM (inactive) in assay [14]; 4.32 µM (inactive) in [15]; > 100 µM (inactive) in assay [16]; 97.1 µM (inactive) in assay [17].

For `OCC(O)COc1c(Cl)cc(Cl)cc1Cl` (stereo not given), the GI50 was > 100 µM (inactive) in assay [1]; > 100 µM (inactive) in [2]; > 100 µM (inactive) in assay [3]; > 100 µM (inactive) in assay [4]; > 47.6 µM (inactive) in [5]; > 100 µM (inactive) in [6]. Also, the GI50 in [7] is > 44.9 µM (inactive); in assay [8], > 100 µM (inactive); in [9], > 100 µM (inactive); in [10] it was > 41.8 µM (inactive); in assay [11], > 100 µM (inactive); in assay [12], > 100 µM (inactive). Further, the GI50 is > 100 µM (inactive) in [13]; > 100 µM (inactive) in [14]; > 100 µM (inactive) in assay [15]; > 100 µM (inactive) in assay [16]; > 41.3 µM (inactive) in assay [17].

With `COc1cc2c[n+](C)c3c4cc(OC)c(OC(C)C)cc4ccc3c2cc1OC`, the GI50 in [1] is > 100 µM (inactive); in assay [2] it was > 100 µM (inactive); in assay [3], 47 µM (inactive); in assay [4], 20.1 µM (inactive); in assay [5], > 100 µM (inactive); in [6] it was > 100 µM (inactive). Moreover, the GI50 in assay [7] was 36.2 µM (inactive); in [8] it was 44.2 µM (inactive); in assay [9] it was > 100 µM (inactive); in assay [10], 56.2 µM (inactive); in assay [11], 57.7 µM (inactive); in [12], 73.6 µM (inactive). Moreover, the GI50 was 37.3 µM (inactive) in [13]; 75.3 µM (inactive) in assay [14]; 35.2 µM (inactive) in assay [15]; 69.7 µM (inactive) in assay [16]; 46.5 µM (inactive) in [17].

Regarding `Cc1ccccc1C(C#N)C(=O)C(=O)Nc1cccc(Cl)c1` (stereo not given), the GI50 is > 100 µM (inactive) in assay [1]; > 100 µM (inactive) in assay [2]; > 100 µM (inactive) in [3]; > 100 µM (inactive) in [4]; 37.8 µM (inactive) in assay [5]; > 100 µM (inactive) in assay [6]. The GI50 in assay [7] is 27.2 µM (inactive); in assay [8], > 100 µM (inactive); in [9], > 100 µM (inactive); in assay [10] it was 39.4 µM (inactive); in assay [11] it was > 100 µM (inactive); in assay [12] it was > 100 µM (inactive). Also, the GI50 in assay [13] was > 100 µM (inactive); in assay [14] it was 61.5 µM (inactive); in [15] it was 91.4 µM (inactive); in assay [16], > 100 µM (inactive); in [17], 19.1 µM (inactive).

Values taken from ChEMBL document CHEMBL1201862, “PubChem BioAssay data set” (2004).
